From patent EP0097070A2, “Process for preparing ellipticine derivatives, compounds so obtained and medicaments containing them” (ELF SANOFI, priority 1982, dated 1983) come the findings set out here.

Read-outs that look alike come from different tables or passages of the source.

Series [1] concerns souris femelles de type DSA/2. The following applies: mouse, in vivo, ip, 43200 min. The source says: Cette étude, effectuée sur des souris femelles de type DSA/2 d'un poids corporel moyen de 20 g a permis de déterminer la DL0, qui représente la dose unique maximum administrable par une injection intrapéritonéale sans qu'aucune mort intervienne dans les 30 jours qui suivent l'administration du produit.

In series [2] the test system is cellules leucémiques L 1210. The series is described as follows: Cytotoxicity: growth inhibition of L 1210 cells in culture. The format is cell-based. The following applies: concentration giving 50 p. 100 inhibition of cell multiplication, 48 hours of culture, DMSO 1 p. 100 final, read-out: ID50 (the source's name). The source says: Les substances à étudier sont dissoutes dans du DMSO (1 p. 100 final) dont on a préalablement vérifié l'innocuité. Des quantités croissantes du produit à tester sont ajoutées au temps ? des numérations sont faites après 24 heures et 48 heures de contact. Des sérias témoins sont constituées avec ces quantités de DMSO équivalentes à celles des séries traitées. […] 5 Le pourcentage d'inhibition de la croissance cellulaire est déterminé par le rapport […] de croissance du témoin sur […] de croissance des essais pour différentes concentrations de produit à tester après 24 heures et 48 heures de culture Une relation dose effet est déterminée selon […] et WILCOXON (C. DUPONT, […].

Series [3] deals with cellules tumorales L 1210. As to the kind of experiment: Antitumour effect: increase in life span of mice inoculated with L 1210 cells. Type of series: in vivo, souris. The conditions noted are these: 10^5 L 1210 cells i.p.; compound i.p. at dose DL0/2 (half the LD0 dose), 20 hours after inoculation; versus control animals; significant if above 25 p. 100. From the text:
Les cellules tumorales L 1210 sont inoculées par la voie intrapéritonéale à ces souris femelles OBA/2 d'un poids corporel moyen de 20g en une injection unique de 10^5 cellules; chez les animaux traités, le composé étudié est injecté à la dose de OL0/2 également par la voie intrapéritonéale 20 heures après la première injection des cellules L 1210.
L'effet antitumoral est apprécié par la détermination de l'augmentation de la durée de survie (ILS : increase in life Span) des animaux traités par rapport aux animaux témoins qui n'ont reçu que les cellules tumorales.
L'augmentation de la durée de survie est considérée comme significative lorsqu'elle est supérieure à 25 p. 100.
Les résultats obtenus sont consignés dans le tableau suivant qui indique pour les dérivés testés, le pourcentage d'augmentation de la durée de survie par rapport au témoin.

For `Cc1c2cc[n+](C)cc2c(C)c2c1[nH]c1ccc(O)c(N=C(CC(C)C)C(=O)O)c12` [dérivé n° 1, acétate es méthyl-2 hydroxy-9 leucine-10, elliopticinium], the DL0 in series [1] worked out at 10 mg/kg. In addition, in series [2] (Mus musculus, L1210), the IC50 worked out at 280 nM. The “POURCENTAGE D'AUGMENTATION DE LA DUREE DE SURVIE (ILS)” value in series [3] amounted to 35 p. 100.

In turn, `Cc1c2cc[n+](C)cc2c(C)c2c1[nH]c1ccc(O)c(N=C(C(=O)O)C(C)C)c12` [dérivé n° 2, acétate de méthyl-2 hydroxy-9 valine 10 ellipticinium] displayed a DL0 in series [1] of 15 mg/kg. The IC50 in series [2] (Mus musculus, L1210) amounted to 310 nM. Also, the “POURCENTAGE D'AUGMENTATION DE LA DUREE DE SURVIE (ILS)” value in series [3] is 31,3 p. 100.

Consider `Cc1c2cc[n+](C)cc2c(C)c2c1[nH]c1ccc(O)c(N=CC(=O)O)c12` [dérivé n° 3], for which the DL0 in series [1] is 20 mg/kg. Moreover, the IC50 in series [2] (Mus musculus, L1210) was 540 nM.

For `Cc1c2cc[n+](C)cc2c(C)c2c1[nH]c1ccc(O)c(N=C(Cc3c[nH]cn3)C(=O)O)c12` [dérivé n° 4], the IC50 in series [2] (Mus musculus, L1210) is 2460 nM.

Take `CC(=Nc1c(O)ccc2[nH]c3c(C)c4cc[n+](C)cc4c(C)c3c12)C(=O)O` [dérivé n° 5, scétate ce méthyl-2 hydroxy-9 elanine-10 ellipricinium]: in series [1], the DL0 came out at 20 mg/kg. Moreover, the IC50 in series [2] (Mus musculus, L1210) was 200 nM.

Regarding `Cc1c2cc[n+](C)cc2c(C)c2c1[nH]c1ccc(O)c(N=C(CCC(=O)O)C(=O)O)c12` [dérivé n° 6, acétate de méthyl-2 hydroxy-9 glutamyle-10 ellipticinium], the IC50 in series [2] (Mus musculus, L1210) was 23500 nM.

Regarding `CC(=O)NC(CSc1c(O)ccc2[nH]c3c(C)c4cc[n+](C)cc4c(C)c3c12)C(=O)O` (stereo not shown) [dérivé n° 8, Hexafluorophosphate de méthyl-2 hydroxy-9 N-acétyl cystéin-10 ellipticinium], the IC50 in series [2] (Mus musculus, L1210) stood at 1120 nM.

As for `Cc1c2cc[n+](C)cc2c(C)c2c1[nH]c1ccc(O)c(SCC(NC(=O)CCC(N)C(=O)O)C(=O)NCC(=O)O)c12` (stereo not shown) [dérivé n° 9, hexafluorophosphata de méthyl-2 hydroxy-9 glutathion-10 ellipticinium], in series [2] (Mus musculus, L1210), the IC50 was 1610 nM.

Take “Hexafluorophosphate de méthyl-2 hydroxy-8 méthylcystéine-10 ellipticinium [dérivé n° 7]”: the IC50 in series [2] came to 790 nM.

On to “acétate de méthyl -2 oxo -9 (guanylyl -5' -P)-10 ellipticinium [dérivé n° 13]”, for which the IC50 in series [2] was greater than 1000 nM.

In the case of “acétate de méthyl-2 oxo -9 (adényl -5'-P)-10 ellioticinium [dérivé n° 12]”, the IC50 in series [2] was greater than 800 nM.

Regarding “acétate de méthyl-2 oxo-9 adényl-10 ellipticinium [dérivé n° 10]”, the IC50 in series [2] worked out at 500 nM.

In the case of “acétate de méthyl-2 oxo-9 guanosyl-10 ellipticinium [dérivé n° 11]”, the IC50 in series [2] was 760 nM.
